The term inhibition denotes the relative decrease from the control value, in per cent.

The record followed here is patent publication US10077261B2, “Imidazolin-5-one derivative useful as FASN inhibitors for the treatment of cancer” (Janssen Pharmaceutica NV, priority 2012, dated 2018).

The target in assay [1] is T1, hFASN enzyme (full length) (Homo sapiens, UniProt P49327).
T1 construct: 10 μL hFASN enzyme (full length, 300 ng, purified in house); made in house
The assay is described as follows: Fatty Acid Synthase (FASN) inhibition scintillation proximity assay. It is filed as biochemical. The note with it: for inhibition at 10 µM: read-out: Human FASN % inhibition @ 10 μM, 10 μM test compound; for IC50: read-out: Human FASN pIC50 (converted). In outline:
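Full-length in-house purified enzyme (300 ng) was tested in 100 mM KH2PO4 pH 7.5, 1 mM DTT with ³H-acetyl-CoA and malonyl-CoA as substrates; compounds ranged 0.01–30 μM. Reactions were stopped with streptavidin imaging beads, read by LEADseeker at 610 nm, and fitted to a 4-parameter logistic curve.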

Assay [2] has as its system A2780 ovarian cells. The assay is described as follows: A2780 ovarian cell proliferation assay in lipid reduced medium, with palmitate (MTT). It is filed as cell-based. The following applies: Homo sapiens, A2780, 96 h; read-out: pIC50 A2780 Ovarian Cell, With Palmitate (converted). In outline: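 Seeded cells were switched next day to lipid-reduced serum, exposed to compound and 25 μM palmitate complexed with fatty-acid-free BSA, and incubated 96 h. Proliferation was then determined by MTT absorbance at 544 nm, with a best-fit curve of signal against concentration.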

The test system of assay [3] is A2780 ovarian cells. Kind of assay: A2780 ovarian cell proliferation assay in lipid reduced medium, without palmitate (MTT). Format: cell-based. The note with it: Homo sapiens, A2780, 96 h; read-out: pIC50 A2780 Ovarian Cell, Without Palmitate (converted).
For assay [4], the system named is LNCaP-Vancouver prostate cells. Kind of assay: In vitro LNCaP Vancouver prostate cell proliferation assay in lipid reduced medium. Format: cell-based. The note with it: read-out: pIC50 LNCaP_Vancouver prostate cell (converted).
Assay [5] deals with PC-3M-Luc-C6 prostate cells. Kind of assay: In vitro PC-3M-Luc-C6 prostate cell proliferation assay in lipid reduced medium. Format: cell-based. The following applies: 96 h, read-out: pIC50 PC-3M-Luc-C6 prostate cell (converted).
Assay [6] deals with Fatty Acid Synthase Keto-reductase Domain (FASN KR) (Homo sapiens, UniProt P49327). Kind of assay: Fatty Acid Synthase keto-reductase domain (FASN KR) inhibition, NADPH oxidation at 340 nm.
Sequence of Fatty Acid Synthase Keto-reductase Domain (FASN KR) (P49327 whole entry, the tested form may be a part): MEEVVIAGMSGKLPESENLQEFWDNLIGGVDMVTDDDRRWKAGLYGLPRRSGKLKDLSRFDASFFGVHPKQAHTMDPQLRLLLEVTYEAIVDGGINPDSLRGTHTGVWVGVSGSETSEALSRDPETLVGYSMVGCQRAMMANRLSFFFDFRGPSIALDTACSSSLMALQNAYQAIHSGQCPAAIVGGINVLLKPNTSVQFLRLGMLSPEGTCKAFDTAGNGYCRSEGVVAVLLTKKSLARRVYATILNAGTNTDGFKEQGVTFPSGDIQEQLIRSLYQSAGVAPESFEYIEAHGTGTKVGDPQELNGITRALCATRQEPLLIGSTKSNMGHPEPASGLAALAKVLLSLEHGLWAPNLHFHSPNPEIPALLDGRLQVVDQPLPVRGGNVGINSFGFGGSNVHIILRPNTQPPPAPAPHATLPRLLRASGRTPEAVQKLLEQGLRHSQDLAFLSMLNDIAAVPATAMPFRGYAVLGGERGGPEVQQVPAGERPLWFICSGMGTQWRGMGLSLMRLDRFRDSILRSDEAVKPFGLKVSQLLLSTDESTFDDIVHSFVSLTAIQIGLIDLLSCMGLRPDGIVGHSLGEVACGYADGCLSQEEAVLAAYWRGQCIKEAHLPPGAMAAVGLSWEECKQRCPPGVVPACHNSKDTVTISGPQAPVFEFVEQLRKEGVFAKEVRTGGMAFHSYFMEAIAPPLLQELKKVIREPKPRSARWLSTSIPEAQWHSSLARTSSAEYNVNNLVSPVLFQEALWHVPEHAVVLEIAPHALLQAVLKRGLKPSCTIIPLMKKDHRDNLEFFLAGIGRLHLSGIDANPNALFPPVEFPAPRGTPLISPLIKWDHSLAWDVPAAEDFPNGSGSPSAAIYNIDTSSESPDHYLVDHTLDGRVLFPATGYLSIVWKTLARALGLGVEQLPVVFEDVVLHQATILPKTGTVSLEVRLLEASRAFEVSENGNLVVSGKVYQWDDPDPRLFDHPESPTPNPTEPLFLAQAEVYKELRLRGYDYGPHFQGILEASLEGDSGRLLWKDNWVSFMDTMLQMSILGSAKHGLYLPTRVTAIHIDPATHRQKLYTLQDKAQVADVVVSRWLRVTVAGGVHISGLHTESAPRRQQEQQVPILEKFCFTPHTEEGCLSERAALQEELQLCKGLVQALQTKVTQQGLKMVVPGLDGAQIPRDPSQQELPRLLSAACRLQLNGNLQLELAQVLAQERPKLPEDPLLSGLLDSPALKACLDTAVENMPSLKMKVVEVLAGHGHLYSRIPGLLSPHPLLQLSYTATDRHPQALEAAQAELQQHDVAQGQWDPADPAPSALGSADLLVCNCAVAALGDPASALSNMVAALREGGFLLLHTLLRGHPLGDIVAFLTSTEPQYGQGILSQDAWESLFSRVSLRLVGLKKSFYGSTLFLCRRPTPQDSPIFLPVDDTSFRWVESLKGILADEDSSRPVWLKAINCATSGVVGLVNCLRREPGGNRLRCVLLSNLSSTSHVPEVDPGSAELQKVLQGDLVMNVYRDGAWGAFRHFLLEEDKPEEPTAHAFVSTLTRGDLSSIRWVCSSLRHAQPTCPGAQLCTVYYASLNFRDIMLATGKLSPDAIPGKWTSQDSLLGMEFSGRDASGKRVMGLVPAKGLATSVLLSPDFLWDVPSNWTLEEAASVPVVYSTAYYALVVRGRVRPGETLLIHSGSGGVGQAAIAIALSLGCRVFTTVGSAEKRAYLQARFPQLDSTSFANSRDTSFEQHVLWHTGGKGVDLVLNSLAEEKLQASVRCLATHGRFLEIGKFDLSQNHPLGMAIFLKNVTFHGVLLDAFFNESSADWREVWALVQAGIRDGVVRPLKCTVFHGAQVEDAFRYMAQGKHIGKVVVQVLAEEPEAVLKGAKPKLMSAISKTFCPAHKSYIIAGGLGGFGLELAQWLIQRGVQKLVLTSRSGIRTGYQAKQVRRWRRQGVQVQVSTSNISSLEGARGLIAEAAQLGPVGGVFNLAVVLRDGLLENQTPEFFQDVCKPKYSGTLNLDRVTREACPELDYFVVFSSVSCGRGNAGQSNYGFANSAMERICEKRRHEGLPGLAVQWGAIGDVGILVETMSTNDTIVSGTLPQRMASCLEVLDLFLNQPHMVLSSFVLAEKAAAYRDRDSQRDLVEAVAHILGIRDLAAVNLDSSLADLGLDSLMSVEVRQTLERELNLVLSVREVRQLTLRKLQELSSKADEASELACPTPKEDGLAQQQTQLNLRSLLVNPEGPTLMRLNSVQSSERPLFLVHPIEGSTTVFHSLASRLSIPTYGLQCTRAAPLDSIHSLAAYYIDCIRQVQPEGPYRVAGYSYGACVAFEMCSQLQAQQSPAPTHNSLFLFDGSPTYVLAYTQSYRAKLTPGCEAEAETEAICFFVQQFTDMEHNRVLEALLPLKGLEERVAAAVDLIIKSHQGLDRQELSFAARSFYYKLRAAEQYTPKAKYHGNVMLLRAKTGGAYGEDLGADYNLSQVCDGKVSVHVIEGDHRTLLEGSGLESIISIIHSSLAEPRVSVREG
Protocol: After 20 minutes incubation at room temperature the plate was measured again (T2).
The decrease in absorbance was calculated as (Absorbance before incubation T1)−(Absorbance following incubation T2).
A plot of Controlmin versus test compound concentration was fitted to a 4-parameter logistic curve using a non-linear least squares regression method.

SMILES strings stand for the structures. Some results are limits rather than exact numbers.

T1 sequence (P49327 whole entry): as the sequence (P49327 whole entry, the tested form may be a part) above

For the compound `Cn1nc(CO)c2cc(-c3ccc(C4=NC5(CC5)C(=O)N4CC4CN(C(=O)C5CC5)C4)c(F)c3)ccc21` [compound 609, 6-{[1-(Cyclopropylcarbonyl)azetidin-3-yl]methyl}-5-{2-fluoro-4-[3-(hydroxymethyl)-1-methyl-1H-indazol-5-yl]phenyl}-4,6-diazaspiro[2.4]hept-4-en-7-one], in assay [1], the inhibition at 10 µM came out at 99%. The IC50 in assay [1] is 186 nM; in the assay on A2780 ovarian cells [2], above 10000 nM; in the assay with A2780 ovarian cells [3], around 263 nM; in assay [4], 4790 nM; in assay [5], 661 nM; in assay [6], 676 nM.
As for `Cc1cc(-c2cccc(NS(=O)(=O)C3CC3)c2)ccc1C1=NC2(CC2)C(=O)N1C[C@@H]1CCN(C(=O)C2CC2)C1` [compound 613, N-[4′-(6-{[(3R)-1-(Cyclopropylcarbonyl)pyrrolidin-3-yl]methyl}-7-oxo-4,6-diazaspiro[2.4]hept-4-en-5-yl)-3′-methylbiphenyl-3-yl]cyclopropanesulfonamide], in assay [1], the inhibition at 10 µM came out at 102%. Moreover, the IC50 is 115 nM in assay [1]; above 10000 nM with A2780 ovarian cells [2]; 107 nM with A2780 ovarian cells [3]; 851 nM in assay [4]; 97.7 nM in assay [5]; 229 nM in assay [6].
Regarding `O=C(Nc1cccc(-c2ccc(C3=NC4(CC4)C(=O)N3CC3CN(C(=O)C4CC4)C3)c(F)c2)c1)C1CC1` [compound 615, N-[4′-(6-{[1-(Cyclopropylcarbonyl)azetidin-3-yl]methyl}-7-oxo-4,6-diazaspiro[2.4]hept-4-en-5-yl)-3′-fluorobiphenyl-3-yl]cyclopropanecarboxamide], the inhibition at 10 µM in assay [1] was 98%. The IC50 in assay [1] is 324 nM; in the assay with A2780 ovarian cells [2], above 10000 nM; in the assay with A2780 ovarian cells [3], 501 nM; in assay [4], 3240 nM; in assay [5], around 2340 nM; in assay [6] it was 1050 nM.
With `N#Cc1ccc2ccc(-c3ccc(C4=NC5(CC5)C(=O)N4CC4CN(C(=O)C5CC5)C4)c(F)c3)cc2c1` [compound 616, 7-[4-(6-{[1-(Cyclopropylcarbonyl)azetidin-3-yl]methyl}-7-oxo-4,6-diazaspiro[2.4]hept-4-en-5-yl)-3-fluorophenyl]naphthalene-2-carbonitrile], the inhibition at 10 µM in assay [1] amounted to 94%. In addition, the IC50 in assay [1] was 513 nM; in the assay on A2780 ovarian cells [2] it was above 10000 nM; in the assay with A2780 ovarian cells [3], 1820 nM; in assay [4] it was 3160 nM; in assay [5], above 10000 nM; in assay [6], 1550 nM.
On to `COc1ccc2ccc(-c3ccc(C4=NC5(CC5)C(=O)N4CC4CN(C(=O)C5(O)CC5)C4)c(F)c3)cc2c1` [compound 617, 5-[2-Fluoro-4-(7-methoxynaphthalen-2-yl)phenyl]-6-({1-[(1-hydroxycyclopropyl)carbonyl]azetidin-3-yl}methyl)-4,6-diazaspiro[2.4]hept-4-en-7-one], for which the inhibition at 10 µM in assay [1] is 100%. Besides, the IC50 is 166 nM in assay [1]; above 10000 nM with A2780 ovarian cells [2]; 245 nM in the assay on A2780 ovarian cells [3]; 2570 nM in assay [4]; 646 nM in assay [5]; 631 nM in assay [6].
In the case of `COc1ccc2ccc(-c3ccc(C4=NC5(CC5)C(=O)N4CC4CN(C(=O)C5CC5)C4)c(F)c3)cc2c1` [compound 618, 6-{[1-(Cyclopropylcarbonyl)azetidin-3-yl]methyl}-5-[2-fluoro-4-(7-methoxynaphthalen-2-yl)phenyl]-4,6-diazaspiro[2.4]hept-4-en-7-one], the inhibition at 10 µM in assay [1] was 98%. The IC50 in assay [1] is 229 nM; in the assay on A2780 ovarian cells [2] it was above 10000 nM; in the assay on A2780 ovarian cells [3], 794 nM; in assay [4], 3470 nM; in assay [5], around 2570 nM; in assay [6], 1120 nM.
Turning to `O=C(C1CC1)N1CC(CN2C(=O)C3(CC3)N=C2c2ccc(-c3cccc(NS(=O)(=O)C4CC4)c3)cc2F)C1` [compound 619, N-[4′-(6-{[1-(Cyclopropylcarbonyl)azetidin-3-yl]methyl}-7-oxo-4,6-diazaspiro[2.4]hept-4-en-5-yl)-3′-fluorobiphenyl-3-yl]cyclopropanesulfonamide], the inhibition at 10 µM in assay [1] was 101%. The IC50 in assay [1] is 186 nM; with A2780 ovarian cells [2] it was above 10000 nM; in the assay with A2780 ovarian cells [3], around 224 nM; in assay [4], 3240 nM; in assay [5] it was 631 nM; in assay [6], 380 nM.
For the compound `N#Cc1ccc2ccc(-c3ccc(C4=NC5(CC5)C(=O)N4CC4CN(C(=O)C5(O)CC5)C4)c(F)c3)cc2c1` [compound 621, 7-{3-Fluoro-4-[6-({1-[(1-hydroxycyclopropyl)carbonyl]azetidin-3-yl}methyl)-7-oxo-4,6-diazaspiro[2.4]hept-4-en-5-yl]phenyl}naphthalene-2-carbonitrile], the inhibition at 10 µM in assay [1] was 92%. The IC50 in assay [1] was 617 nM; in the assay on A2780 ovarian cells [2], 6170 nM; in the assay with A2780 ovarian cells [3], 708 nM; in assay [4], 2140 nM; in assay [5], 437 nM; in assay [6], 513 nM.
For `Cc1cc(-c2ccc(-c3ccnn3C)cc2)ccc1C1=NC2(CC2)C(=O)N1C[C@@H]1CCN(C(=O)C2(C)CC2)C1` [compound 623, 6-({(3R)-1-[(1-Methylcyclopropyl)carbonyl]pyrrolidin-3-yl}methyl)-5-[3-methyl-4′-(1-methyl-1H-pyrazol-5-yl)biphenyl-4-yl]-4,6-diazaspiro[2.4]hept-4-en-7-one], the inhibition at 10 µM in assay [1] is 101%. For the same compound, the IC50 is 145 nM in assay [1]; 5130 nM in the assay with A2780 ovarian cells [2]; around 32.4 nM in the assay with A2780 ovarian cells [3]; 562 nM in assay [4]; 123 nM in assay [5]; 234 nM in assay [6].
For `Cc1cc(-c2ccc3c(c2)ncn3C)ccc1C1=NC2(CC2)C(=O)N1CC1CN(C(=O)C2(C)CC2)C1` [compound 627, 6-({1-[(1-Methylcyclopropyl)carbonyl]azetidin-3-yl}methyl)-5-[2-methyl-4-(1-methyl-1H-benzimidazol-5-yl)phenyl]-4,6-diazaspiro[2.4]hept-4-en-7-one], the inhibition at 10 µM in assay [1] amounted to 105%. Further, the IC50 in assay [1] is 107 nM; in the assay with A2780 ovarian cells [2], above 10000 nM; in the assay on A2780 ovarian cells [3], 12 nM; in assay [4] it was around 129 nM; in assay [5], 47.9 nM; in assay [6] it was 126 nM.
As to `COc1cccc2cc(-c3ccc(C4=NC5(CC5)C(=O)N4CC4CN(C(=O)C5CC5)C4)c(F)c3)ccc12` [compound 635, 6-{[1-(Cyclopropylcarbonyl)azetidin-3-yl]methyl}-5-[2-fluoro-4-(5-methoxynaphthalen-2-yl)phenyl]-4,6-diazaspiro[2.4]hept-4-en-7-one], in assay [1], the inhibition at 10 µM is 97%. In addition, the IC50 in assay [1] was 219 nM; with A2780 ovarian cells [2] it was above 10000 nM; with A2780 ovarian cells [3], 129 nM; in assay [4] it was 1020 nM; in assay [5], 355 nM; in assay [6], 1350 nM.
With `Cn1ncc2cc(-c3ccc(C4=NC5(CC5)C(=O)N4CC4CN(C(=O)C5(F)CC5)C4)c(F)c3)ccc21` [compound 637, 6-({1-[(1-Fluorocyclopropyl)carbonyl]azetidin-3-yl}methyl)-5-[2-fluoro-4-(1-methyl-1H-indazol-5-yl)phenyl]-4,6-diazaspiro[2.4]hept-4-en-7-one], the inhibition at 10 µM in assay [1] came to 99%. Besides, the IC50 was 120 nM in assay [1]; above 10000 nM in the assay on A2780 ovarian cells [2]; 85.1 nM with A2780 ovarian cells [3]; 1820 nM in assay [4]; around 234 nM in assay [5]; 871 nM in assay [6].
For `O=C(C1CC1)N1CC(CN2C(=O)C3(CC3)N=C2c2ccc(-c3nc4cc(F)ccc4s3)cc2F)C1` [compound 638, 6-{[1-(Cyclopropylcarbonyl)azetidin-3-yl]methyl}-5-[2-fluoro-4-(5-fluoro-1,3-benzothiazol-2-yl)phenyl]-4,6-diazaspiro[2.4]hept-4-en-7-one], in assay [1], the inhibition at 10 µM is 100%. Besides, the IC50 in assay [1] is 191 nM; in the assay with A2780 ovarian cells [2], above 10000 nM; in the assay on A2780 ovarian cells [3], around 195 nM; in assay [4] it was 1700 nM; in assay [5], 479 nM; in assay [6] it was 1000 nM.
`O=C(C1CC1)N1CC(CN2C(=O)C3(CC3)N=C2c2ccc(-c3nc4cc(F)c(F)cc4s3)cc2F)C1` [compound 639, 6-{[1-(Cyclopropylcarbonyl)azetidin-3-yl]methyl}-5-[4-(5,6-difluoro-1,3-benzothiazol-2-yl)-2-fluorophenyl]-4,6-diazaspiro[2.4]hept-4-en-7-one]: the inhibition at 10 µM in assay [1] was 97%. Also, the IC50 was 282 nM in assay [1]; above 10000 nM in the assay with A2780 ovarian cells [2]; around 363 nM with A2780 ovarian cells [3]; 2340 nM in assay [4]; 794 nM in assay [5]; 1450 nM in assay [6].
